In paper PMC9232612, “A phase 1b randomised controlled trial of a glucagon-like peptide-1 and glucagon receptor dual agonist IBI362 (LY3305677) in Chinese patients with type 2 diabetes” (Nature Communications, 2022):

Legend:
[1] = Immunogenicity: anti-IBI362 antibody (ADA) and neutralizing antibody; type: in vivo, human
Text: Standard non-compartmental pharmacokinetics methods were used to analyze IBI362 plasma concentration data using Pkanalix 2020R1 (Lixoft, Antony, France). Secondary efficacy outcomes included change from baseline to week 12 in HbA1c, fasting plasma glucose (FPG), fasting insulin levels, change from baseline to week 12 in post-mixed-meal tolerance test (post-MTT) glucose, insulin, C peptide, GLP-1 and OXM levels, as well as seven-point self-measured blood glucose (SMBG) profile.
Safety analyses were done in the safety population (defined as all patients who received at least one dose of the study treatment). Pharmacokinetic analyses were done in the pharmacokinetic population (defined as all patients who received at least one dose of IBI362 and had at least one valid plasma concentration assessment). Efficacy analyses were done in the efficacy population (defined as all patients who received at least one dose of the study treatment and had baseline and at least one post-baseline HbA1c assessment). Immunogenicity analyses were done in the immunogenicity population (defined as all patients who received at least one dose of the study treatment and had at least one post-baseline ADA result).
(§1) IBI362 Innovent Biologics (Suzhou) Co., Ltd. CIBI362A101
[…] Within 1 hour before D57 administration in Week 9; […]

[2] = Physical and chemical characteristics of drug substance (solubility, PI); type: physicochemical
Text: as §1
IBI362 or placebo, the patient, the investigator, and all personnel involved in the clinical evaluation will be blinded to the treatment from the randomization to database locked, […]
Different drug numbers corresponded to random numbers after randomization in the IWRS, and the unblinding information remained unknown to patients and investigators throughout the trial. The randomization table will be kept by a designated […]
The study drug and placebo will be packaged, labeled, administered at the same time, and will have the appearance, taste, and smell exactly the same to hide the real situation of the treatment drug.
If necessary for the safety of the subject, emergency unblinding must be performed […]
If a patient is randomized to receive active control, the patient will not be blinded.
Sponsor will not be blinded during this study.
5.2.1 Physical and Chemical Characteristics of Drug Substance
Molecular weight: 4560.32 Dalton
Description: White to off-white powder
Solubility: Vehicle: 20 mM Tris buffer pH 8.0 and
Solubility: Not less than 10 mg/mL at
Solubility Description: Sparingly or
5.2.2 Study Drug Strength and Manufacturer
IBI362 is formulated as IBI362 for injection in a strength of 2 mg per vial and […]
The strength of the formulation used in this study is 2 mg/vial; Manufacturer: […]

patients who developed anti-IBI362 antibody ([1]; all IBI362 cohorts, n=24 (four patients)): 16.7% | neutralizing antibodies ([1]; post-baseline samples): No neutralizing antibodies were detected | PI ([2]; drug substance): 5.2 | Solubility ([2]; vehicle 20 mM Tris buffer pH 8.0 and 150 mM sodium chloride, 25℃): Not less than 10 mg/mL
Structure (SMILES): CC(C)C[C@H](NC(=O)[C@H](CC(C)C)NC(=O)[C@H](Cc1c[nH]c2ccccc12)NC(=O)[C@H](CCC(=O)O)NC(=O)[C@@H](NC(=O)[C@H](Cc1ccccc1)NC(=O)[C@H](CCC(=O)O)NC(=O)[C@H](CCCCNC(=O)COCCOCCNC(=O)COCCOCCNC(=O)CC[C@H](NC(=O)CCCCCCCCCCCCCCCCCCC(=O)O)C(=O)O)NC(=O)[C@H](C)NC(=O)[C@H](CCCCN)NC(=O)[C@H](CCCCN)NC(=O)[C@H](CCC(=O)O)NC(=O)[C@H](CC(=O)O)NC(=O)[C@H](CC(C)C)NC(=O)[C@H](Cc1ccc(O)cc1)NC(=O)[C@H](CCCCN)NC(=O)[C@H](CO)NC(=O)[C@H](Cc1ccc(O)cc1)NC(=O)[C@H](CC(=O)O)NC(=O)[C@H](CO)NC(=O)[C@@H](NC(=O)[C@H](Cc1ccccc1)NC(=O)[C@@H](NC(=O)CNC(=O)[C@H](CCC(N)=O)NC(=O)C(C)(C)NC(=O)[C@@H](N)Cc1c[nH]cn1)[C@@H](C)O)[C@@H](C)O)C(C)C)C(=O)N[C@@H](CCC(=O)O)C(=O)NCC(=O)NCC(=O)N1CCC[C@H]1C(=O)N[C@@H](CO)C(=O)N[C@@H](CO)C(=O)NCC(N)=O [IBI362]
